The nature of one series: Diameter of vesicles. In kind it is physicochemical. The following applies: vesicles self-formed in a 2% aqueous solution. The protocol:
Sample 62 was added to a medium in the form of refined vesicles. The refined vesicles were prepared in the following manner. […] Among the vesicles obtained by this preparation method, 97.3% had diameters in a range of 20 to 40 nm. In general, for example, the average diameters of vesicles self-formed in a 2% aqueous solution of GDM12 and a 2% aqueous solution of GDS23 are both about 140 nm.

Another series concerns CAT. Nature of the series: Expression of antioxidant enzyme CAT, quantitative real-time PCR. Format: cell-based, human. As to conditions: NHEM, GDS23 500, 1000 μM (Samples 1 to 3), 6 hours; mRNA corrected with GAPDH, control 100%; FIG. 4. The protocol: (§1) After samples were prepared using normal human epidermal melanocytes, RNA was extracted, and expression and amplification of genes of each of target substances (Nrf-2, PPARG, NQO-1, CAT, and HMOX1) were checked by real-time PCR. PPARG is the genetic code of the protein PPARγ and is one of oxidative stress response genes.
(§2) Sample 1 is a control (no GDS23 added). Samples 2 to 4 are different from one another in the amount of GDS23. • Sample 1: Control (N.C.) • Sample 2: GDS23 (500 μM) • Sample 3: GDS23 (1000 μM) • Sample 4: GDS23 (2000 μM)
(§3) Thereafter, RNA was extracted from the cultured cells for each sample. Reverse transcription of the extracted RNA was performed to generate cDNA, and the quantity of mRNA of each target substance was determined by quantitative real-time PCR expression analysis. GAPDH (glyceraldehyde-3-phosphate dehydrogenase) was used as an internal standard. In the analysis, the mRNA expression level of each target substance was corrected with a value of the expression level of GAPDH as the internal standard in the same sample, and thereafter the correction value for each sample was calculated, assuming the correction value for the control as 100%.
(Real-time PCR tracks product formation cycle by cycle.)

Another series deals with glutathione. Nature of the series: Expression of antioxidant protein: total glutathione per protein quantity, glutathione reductase recycling method. As to conditions: NHEM, GDS23 500 to 4000 μM, 24 hours; control 100%; FIG. 6. Format: cell-based, human. As for the experimental part:
After samples were prepared using normal human epidermal melanocytes, the quantity of glutathione as an antioxidant protein in cells was checked.
Sample 5 is a control (no GDS23 added). Samples 6 to 9 are different from one another in the amount of GDS23. • Sample 5: Control (N.C.) • Sample 6: GDS23 (500 μM) • Sample 7: GDS23 (1000 μM) • Sample 8: GDS23 (2000 μM) • Sample 9: GDS23 (4000 μM)
Thereafter, for each sample, the protein quantity in epidermal melanocytes and the quantity of total glutathione (GSH+GSSG) were determined by a glutathione reductase recycling method, using an assay kit (TaKaRa BCA Protein Assay Kit: from Takara Bio Inc.). The total quantity of glutathione per protein quantity was obtained from the protein quantity and the total quantity of glutathione determined for each sample, and then an increased ratio for each sample was calculated when an increased ratio for the control was assumed as 100%.

The test system of the next series is Nrf-2. Nature of the series: Expression of oxidative stress response gene Nrf-2, quantitative real-time PCR. In kind it is cell-based, human. As to conditions: NHEM, GDS23 500, 1000, 2000 μM, 6 hours; mRNA corrected with GAPDH, control 100%; FIG. 1. The protocol: as §1, §2, §3
A further series has as its system HMOX1. Nature of the series: Expression of antioxidant enzyme HMOX1, quantitative real-time PCR. In kind it is cell-based, human. The following applies: NHEM, GDS23 500, 1000, 2000 μM, 6 hours; mRNA corrected with GAPDH, control 100%; FIG. 5. As for the experimental part:
as §1, §2, §3

In the next series the test system is NQO-1. The series is described as follows: Expression of antioxidant enzyme NQO-1, quantitative real-time PCR. The following applies: NHEM, GDS23 500, 1000, 2000 μM, 6 hours; mRNA corrected with GAPDH, control 100%; FIG. 3. In kind it is cell-based, human. The protocol:
as §1, §2, §3

In the next series the test system is PPARG. Nature of the series: Expression of oxidative stress response gene PPARG, quantitative real-time PCR. Format: cell-based, human. As to conditions: NHEM, GDS23 500, 1000, 2000 μM, 6 hours; mRNA corrected with GAPDH, control 100%; FIG. 2. As for the experimental part:
as §1, §2, §3

As for PEG-12 glycerol dimyristate [GDM12], the “average diameters of vesicles” value in “Diameter of vesicles” is listed as “about 140 nm”.
On to PEG-23 glycerol distearate [GDS23], for which the “expression level of CAT” value with CAT is reported as “enhancement of CAT”. Further, the “total quantity of glutathione per protein quantity” value with glutathione was “promotes production of glutathione”. For the same substance, in the series on Nrf-2, the “expression level of Nrf-2” value is “enhances expression”. In the series “Diameter of vesicles”, the “average diameters of vesicles” value is “about 140 nm”. Also, the “expression level of HMOX1” value with HMOX1 is “Enhancement of HMOX1”. In the series on NQO-1, the “expression level of NQO-1” value is “enhancement of NQO-1”. For the same substance, in the series on PPARG, the “expression level of PPARG” value was “enhances expression”.

These data come from patent publication US11642369B2, “Method for enhancing expression of antioxidant in epidermis” (J-Network, Inc., priority 2020, dated 2023).
